Measured values reported in PubChem BioAssay AID1918944 (Molecular Pharmacology Branch, DTP, NCI, 2023).
Several values for one entry are separate records, joined by “and”; a condition that tells them apart may be missing. Equal entries are not always repeated. Values belong to the compound of their own block, whether it stands above or below them.

Test system: 786-0 complex spheroid viability
Assay: Anticancer human tumor 786-0 cell line growth inhibition;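 note: spheroids exposed to agents for seven days before readout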
Conditions: for viability, T/C: stronger effect = lower value
In short: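 Complex spheroids of tumor cells with HUVEC and human MSCs, exposed to iadademstat combined with other agents. Each agent tested in half-log steps from near clinical Cmax (else 10 microM top), DMSO ≤0.25%.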

[1] = curve of first compound, second compound 0.1 µM
[2] = curve of first compound, second compound 0.316 µM
[3] = curve of first compound, second compound 1 µM
[4] = curve of first compound, second compound 3.16 µM
[5] = curve of first compound, second compound 10 µM
[6] = second compound 0.1 µM, first compound 0.00949 µM
[7] = second compound 0.1 µM, first compound 0.03 µM
[8] = second compound 0.1 µM, first compound 0.0949 µM
[9] = second compound 0.1 µM, first compound 0.3 µM
[10] = second compound 0.316 µM, first compound 0.00949 µM
[11] = second compound 0.316 µM, first compound 0.03 µM
[12] = second compound 0.316 µM, first compound 0.0949 µM
[13] = second compound 0.316 µM, first compound 0.3 µM
[14] = second compound 1 µM, first compound 0.00949 µM
[15] = second compound 1 µM, first compound 0.03 µM
[16] = second compound 1 µM, first compound 0.0949 µM
[17] = second compound 1 µM, first compound 0.3 µM
[18] = second compound 3.16 µM, first compound 0.00949 µM
[19] = second compound 3.16 µM, first compound 0.03 µM
[20] = second compound 3.16 µM, first compound 0.0949 µM
[21] = second compound 3.16 µM, first compound 0.3 µM
[22] = second compound 10 µM, first compound 0.00949 µM
[23] = second compound 10 µM, first compound 0.03 µM
[24] = second compound 10 µM, first compound 0.0949 µM
[25] = second compound 10 µM, first compound 0.3 µM
[26] = second compound 0.1 µM, first compound 0.949 µM
[27] = second compound 0.1 µM, first compound 3 µM
[28] = second compound 0.316 µM, first compound 0.949 µM
[29] = second compound 0.316 µM, first compound 3 µM
[30] = second compound 1 µM, first compound 0.949 µM
[31] = second compound 1 µM, first compound 3 µM
[32] = second compound 3.16 µM, first compound 0.949 µM
[33] = second compound 3.16 µM, first compound 3 µM
[34] = second compound 10 µM, first compound 0.949 µM
[35] = second compound 10 µM, first compound 3 µM

SMILES: Nc1ncn(C2CC(O)C(CO)S2)c(=O)n1 (configuration not stated) + NC1CCC(NC2CC2c2ccccc2)CC1
- IC50 [1]: 198 nM
- IC50 [2]: 207 nM
- IC50 [3]: 201 nM
- IC50 [4]: 174 nM
- IC50 [5]: 141 nM
- viability, T/C (second compound 0.1 µM, first compound 0.000949 µM): 127%
- viability, T/C (second compound 0.1 µM, first compound 0.003 µM): 127%
- viability, T/C [6]: 130%
- viability, T/C [7]: 111%
- viability, T/C [8]: 78.3%
- viability, T/C [9]: 34.1%
- viability, T/C (second compound 0.316 µM, first compound 0.000949 µM): 135%
- viability, T/C (second compound 0.316 µM, first compound 0.003 µM): 131%
- viability, T/C [10]: 130%
- viability, T/C [11]: 120%
- viability, T/C [12]: 77.1%
- viability, T/C [13]: 37%
- viability, T/C (second compound 1 µM, first compound 0.000949 µM): 122%
- viability, T/C (second compound 1 µM, first compound 0.003 µM): 123%
- viability, T/C [14]: 128%
- viability, T/C [15]: 115%
- viability, T/C [16]: 74.5%
- viability, T/C [17]: 36.9%
- viability, T/C (second compound 3.16 µM, first compound 0.000949 µM): 117%
- viability, T/C (second compound 3.16 µM, first compound 0.003 µM): 126%
- viability, T/C [18]: 126%
- viability, T/C [19]: 108%
- viability, T/C [20]: 70.2%
- viability, T/C [21]: 32.2%
- viability, T/C (second compound 10 µM, first compound 0.000949 µM): 93.6%
- viability, T/C (second compound 10 µM, first compound 0.003 µM): 91.8%
- viability, T/C [22]: 104%
- viability, T/C [23]: 98.6%
- viability, T/C [24]: 61.9%
- viability, T/C [25]: 27%

SMILES: Nc1ccccc1NC(=O)c1ccc(CNC(=O)OCc2cccnc2)cc1 + NC1CC1c1ccc(-c2cccc(O)c2)cc1
- IC50 [1]: 1520 nM
- IC50 [2]: 1770 nM
- IC50 [3]: 1520 nM
- IC50 [4]: 1380 nM
- IC50 [5]: 1370 nM
- viability, T/C [6]: 107%
- viability, T/C [7]: 108%
- viability, T/C [8]: 97.8%
- viability, T/C [9]: 96.1%
- viability, T/C [26]: 66.3%
- viability, T/C [27]: 25.6%
- viability, T/C [10]: 113%
- viability, T/C [11]: 110%
- viability, T/C [12]: 112%
- viability, T/C [13]: 103%
- viability, T/C [28]: 78.8%
- viability, T/C [29]: 25.8%
- viability, T/C [14]: 103%
- viability, T/C [15]: 114%
- viability, T/C [16]: 110%
- viability, T/C [17]: 91.8%
- viability, T/C [30]: 71%
- viability, T/C [31]: 21.1%
- viability, T/C [18]: 99.4%
- viability, T/C [19]: 102%
- viability, T/C [20]: 98%
- viability, T/C [21]: 89.9%
- viability, T/C [32]: 64.3%
- viability, T/C [33]: 20.7%
- viability, T/C [22]: 103%
- viability, T/C [23]: 101%
- viability, T/C [24]: 97.9%
- viability, T/C [25]: 83.1%
- viability, T/C [34]: 67.2%
- viability, T/C [35]: 17.5%

SMILES: NS(=O)(=O)OCC1CC(n2ccc3c(NC4CCc5ccccc54)ncnc32)CC1O (configuration not stated) + NC1CCC(NC2CC2c2ccccc2)CC1
- IC50 [1]: 125 nM
- IC50 [2]: 139 nM
- IC50 [3]: 153 nM
- IC50 [4]: 133 nM
- IC50 [5]: 104 nM
- viability, T/C [6]: 111%
- viability, T/C [7]: 86.7%
- viability, T/C [8]: 65.6%
- viability, T/C [9]: 13.4%
- viability, T/C [26]: 3.43%
- viability, T/C [27]: 5.07%
- viability, T/C [10]: 115%
- viability, T/C [11]: 87.3%
- viability, T/C [12]: 71.4%
- viability, T/C [13]: 15.2%
- viability, T/C [28]: 3.67%
- viability, T/C [29]: 5.22%
- viability, T/C [14]: 113%
- viability, T/C [15]: 94.6%
- viability, T/C [16]: 74.2%
- viability, T/C [17]: 17.9%
- viability, T/C [30]: 3.16%
- viability, T/C [31]: 4.86%
- viability, T/C [18]: 101%
- viability, T/C [19]: 78.9%
- viability, T/C [20]: 67.3%
- viability, T/C [21]: 15.5%
- viability, T/C [32]: 3.16%
- viability, T/C [33]: 3.27%
- viability, T/C [22]: 73.6%
- viability, T/C [23]: 58.5%
- viability, T/C [24]: 54.6%
- viability, T/C [25]: 15.5%
- viability, T/C [34]: 1.53%
- viability, T/C [35]: 1.72%

- IC50 (curve of compound): > 1000 nM
SMILES: Nc1ncn(C2CC(O)C(CO)O2)c(=O)n1 (configuration not stated)
- viability, T/C (compound 0.00316 µM): 101% and 107%
- viability, T/C (compound 0.01 µM): 92.9% and 108%
- viability, T/C (compound 0.0316 µM): 87.4% and 97.4%
- viability, T/C (compound 0.1 µM): 77.8% and 93.8%
- viability, T/C (compound 0.316 µM): 68.4% and 82.3%
- viability, T/C (compound 1 µM): 53.7% and 76.3%

SMILES: CC1COCCN1c1cc(-c2ccnn2C)c2ccnc(-c3ccn[nH]3)c2n1 (configuration not stated) + NC1CCC(NC2CC2c2ccccc2)CC1
- IC50 [1]: 37.3 nM
- IC50 [2]: 36.9 nM
- IC50 [3]: 30.7 nM
- IC50 [4]: 22.4 nM
- IC50 [5]: 12.4 nM
- viability, T/C (second compound 0.1 µM, first compound 0.00316 µM): 112%
- viability, T/C (second compound 0.1 µM, first compound 0.01 µM): 110%
- viability, T/C (second compound 0.1 µM, first compound 0.0316 µM): 55.5%
- viability, T/C (second compound 0.1 µM, first compound 0.1 µM): 16.3%
- viability, T/C (second compound 0.1 µM, first compound 0.316 µM): 8.21%
- viability, T/C (second compound 0.1 µM, first compound 1 µM): 10.2%
- viability, T/C (second compound 0.316 µM, first compound 0.00316 µM): 123%
- viability, T/C (second compound 0.316 µM, first compound 0.01 µM): 114%
- viability, T/C (second compound 0.316 µM, first compound 0.0316 µM): 55.1%
- viability, T/C (second compound 0.316 µM, first compound 0.1 µM): 16.2%
- viability, T/C (second compound 0.316 µM, first compound 0.316 µM): 7.09%
- viability, T/C (second compound 0.316 µM, first compound 1 µM): 12.1%
- viability, T/C (second compound 1 µM, first compound 0.00316 µM): 116%
- viability, T/C (second compound 1 µM, first compound 0.01 µM): 104%
- viability, T/C (second compound 1 µM, first compound 0.0316 µM): 48.3%
- viability, T/C (second compound 1 µM, first compound 0.1 µM): 15.1%
- viability, T/C (second compound 1 µM, first compound 0.316 µM): 5.97%
- viability, T/C (second compound 1 µM, first compound 1 µM): 11.4%
- viability, T/C (second compound 3.16 µM, first compound 0.00316 µM): 107%
- viability, T/C (second compound 3.16 µM, first compound 0.01 µM): 83.1%
- viability, T/C (second compound 3.16 µM, first compound 0.0316 µM): 35.9%
- viability, T/C (second compound 3.16 µM, first compound 0.1 µM): 12.4%
- viability, T/C (second compound 3.16 µM, first compound 0.316 µM): 5.34%
- viability, T/C (second compound 3.16 µM, first compound 1 µM): 9.25%
- viability, T/C (second compound 10 µM, first compound 0.00316 µM): 77.4%
- viability, T/C (second compound 10 µM, first compound 0.01 µM): 57%
- viability, T/C (second compound 10 µM, first compound 0.0316 µM): 19.2%
- viability, T/C (second compound 10 µM, first compound 0.1 µM): 5.5%
- viability, T/C (second compound 10 µM, first compound 0.316 µM): 3.62%
- viability, T/C (second compound 10 µM, first compound 1 µM): 12%

SMILES: COc1cc(C2c3cc4c(cc3C(OC3OC5COC(C)OC5C(O)C3O)C3COC(=O)C23)OCO4)cc(OC)c1O (configuration not stated) + NC1CC1c1ccc(-c2cccc(O)c2)cc1
- IC50 [1]: 212 nM
- IC50 [2]: 247 nM
- IC50 [3]: 174 nM
- IC50 [4]: 183 nM
- IC50 [5]: 162 nM
- viability, T/C [6]: 96.6%
- viability, T/C [7]: 88.2%
- viability, T/C [8]: 63.9%
- viability, T/C [9]: 42.5%
- viability, T/C [26]: 26.9%
- viability, T/C [27]: 12.1%
- viability, T/C [10]: 105%
- viability, T/C [11]: 95.8%
- viability, T/C [12]: 66.2%
- viability, T/C [13]: 47.1%
- viability, T/C [28]: 25.8%
- viability, T/C [29]: 9.93%
- viability, T/C [14]: 93.1%
- viability, T/C [15]: 89.4%
- viability, T/C [16]: 57.9%
- viability, T/C [17]: 40.2%
- viability, T/C [30]: 22%
- viability, T/C [31]: 10.9%
- viability, T/C [18]: 90.7%
- viability, T/C [19]: 82.9%
- viability, T/C [20]: 59.2%
- viability, T/C [21]: 43.3%
- viability, T/C [32]: 20.8%
- viability, T/C [33]: 10.3%
- viability, T/C [22]: 80.6%
- viability, T/C [23]: 76.6%
- viability, T/C [24]: 54.3%
- viability, T/C [25]: 42.5%
- viability, T/C [34]: 22.6%
- viability, T/C [35]: 8.94%
